Holding throughout (type): functional
Test [1] concerns OVCAR-3. Kind of test: Cytotoxicity against human OVCAR-3 cells.
The test system of test [2] is MDA-MB-435. Briefly: Cytotoxicity against human MDA-MB-435 cells.
For test [3], the system named is HCT-116. Briefly: Cytotoxicity against human HCT116 cells.
Test [4] deals with UACC-62. Briefly: Cytotoxicity against human UACC62 cells.
Test [5] concerns SN12C. Briefly: Cytotoxicity against human SN12C cells.
Test [6] has as its system HOP-62. Kind of test: Cytotoxicity against human HOP62 cells.
Test [7] has as its system SF-539. Kind of test: Cytotoxicity against human SF539 cells.
In test [8] the test system is DU-145. Briefly: Cytotoxicity against human DU145 cells.

A value given as a limit tells only on which side of the number the result lay.

What is called GI50 is the concentration at which growth is held to half of that of the control. Low readings indicate greater sensitivity of the cells, high ones lower sensitivity of the cells. On to `COc1ccc2c(c1)C(=O)c1c-2n(CCCN=[N+]=[N-])c(=O)c2cc(OC)c(OC)cc12`, for which the GI50 in test [1] was 49 µM; in test [2], above 100 µM; in test [3] it was 27.5 µM; in test [4] it was 20.9 µM; in test [5], 64.6 µM; in test [6], 11.5 µM. For the same compound, the GI50 came out at 56.2 µM in test [7] and 26.3 µM in test [8].

On to `Cc1ccc2c(c1)C(=O)c1c-2n(CCCN=[N+]=[N-])c(=O)c2cc([N+](=O)[O-])ccc12`, for which the GI50 was above 100 µM in test [1]; above 100 µM in test [2]; 20.4 µM in test [3]; 30.2 µM in test [4]; 58.9 µM in test [5]; 72.4 µM in test [6]. Also, the GI50 in test [7] and in test [8] was above 100 µM in each case.

As for `CCc1ccc2c(c1)C(=O)c1c-2n(CCCN=[N+]=[N-])c(=O)c2cc([N+](=O)[O-])ccc12`, the GI50 in test [1], in test [2], in test [3], in test [4], in test [5] and in test [6] was above 50.1 µM each time. The GI50 in test [7] and in test [8] was above 50.1 µM in each case.

For the compound `COc1cc2c3c(n(CCCN)c(=O)c2cc1OC)-c1ccc(N(C)C)cc1C3=O`, the GI50 in test [1] came to 17.8 µM; in test [2], 17.8 µM; in test [3] it was 3.63 µM; in test [4], 21.9 µM; in test [5], 17 µM; in test [6] it was 17 µM. Further, the GI50 in test [7] turned out to be 1.9 µM; in test [8] it was 2.4 µM.

In the case of `COc1cc2c3c(n(CCCBr)c(=O)c2cc1OC)-c1ccc(NC(C)=O)cc1C3=O`, the GI50 in test [1] is 4.36 µM; in test [2] it was 13.8 µM; in test [3], 2.57 µM; in test [4] it was 2.09 µM; in test [5], 13.8 µM; in test [6], 1.29 µM. Moreover, the 50% growth inhibitory concentration (GI50) in test [7] was determined as 3.8 µM; in test [8], 4.68 µM.

As for `CSc1ccc2c(c1)C(=O)c1c-2n(CCCN)c(=O)c2cc([N+](=O)[O-])ccc12`, the GI50 in test [1] was 0.17 µM; in test [2] it was 0.204 µM; in test [3], 0.023 µM; in test [4], below 0.01 µM; in test [5] it was 0.162 µM; in test [6], below 0.01 µM. The GI50 in test [7] and in test [8] was below 0.01 µM each time.

For `COc1ccc2c(c1)C(=O)c1c-2n(CCCCl)c(=O)c2cc(OC)c(OC)cc12`, the GI50 is 70.8 µM in test [1]; 37.2 µM in test [2]; 8.32 µM in test [3]; 3.02 µM in test [4]; 5.5 µM in test [5]; 4.07 µM in test [6]. The GI50 in test [7] was 6.76 µM; in test [8], 4.07 µM.

In the case of `O=C1c2cc(Cl)ccc2-c2c1c1ccc([N+](=O)[O-])cc1c(=O)n2CCCBr`, the 50% growth inhibitory concentration (GI50) came out at 36.3 µM in test [1]; 14.8 µM in test [2]; 3.47 µM in test [3]; 3.47 µM in test [4]; 2.51 µM in test [5]; 2.45 µM in test [6]. In addition, the GI50 was 3.72 µM in test [7] and 3.98 µM in test [8].

For `COc1cc2c3c(n(CCCN=[N+]=[N-])c(=O)c2cc1OC)-c1ccccc1C3=O`, the GI50 in test [1] turned out to be 4.57 µM; in test [2] it was 9.77 µM; in test [3], 1.82 µM; in test [4] it was 2.63 µM; in test [5], 13.8 µM; in test [6] it was 3.55 µM. Further, the figures for the GI50 in test [7] and in test [8] were 4.68 µM and 28.2 µM, respectively.

Consider `COc1cc2c3c(n(CCCN)c(=O)c2cc1OC)-c1ccc(F)cc1C3=O`, for which the GI50 in test [1] amounted to 6.31 µM; in test [2] it was 6.03 µM; in test [3] it was 1.38 µM; in test [4], 3.39 µM; in test [5], 4.36 µM; in test [6] it was 0.603 µM. Moreover, the GI50 in test [7] worked out at 1.12 µM; in test [8] it was 0.575 µM.

Turning to `COc1cc2c3c(n(CCCN)c(=O)c2cc1OC)-c1ccccc1C3=O`, the GI50 in test [1] is 0.085 µM; in test [2] it was 0.631 µM; in test [3], below 0.01 µM; in test [4], 2.88 µM; in test [5], 0.794 µM; in test [6] it was 0.151 µM. Further, the GI50 in test [7] is 2.82 µM; in test [8], 2.63 µM.

`COC(=O)c1ccc2c(c1)C(=O)c1c-2n(CCCCl)c(=O)c2cc([N+](=O)[O-])ccc12`: the GI50 is 95.5 µM in test [1]; above 100 µM in test [2]; 41.7 µM in test [3]; 27.5 µM in test [4]; above 100 µM in test [5]; 43.7 µM in test [6]. In addition, the values for the GI50 in test [7] and in test [8] were 83.2 µM and 37.2 µM, respectively.

On to `COc1cc2c3c(n(CCCN=[N+]=[N-])c(=O)c2cc1OC)-c1ccc(F)cc1C3=O`, for which the GI50 is 6.17 µM in test [1]; 38 µM in test [2]; 4.17 µM in test [3]; 5.25 µM in test [4]; 8.32 µM in test [5]; 4.17 µM in test [6]. In addition, the GI50 in test [7] was 3.24 µM; in test [8], 4.17 µM.

As for `CCc1ccc2c(c1)C(=O)c1c-2n(CCCN)c(=O)c2cc([N+](=O)[O-])ccc12`, the GI50 in test [1] was 1.58 µM; in test [2] it was 1.55 µM; in test [3], 0.575 µM; in test [4] it was 1.48 µM; in test [5], 1.48 µM; in test [6] it was 1.38 µM. Moreover, the GI50 stood at 1.58 µM in test [7] and 0.776 µM in test [8].

With `COc1cc2c3c(n(CCCN=[N+]=[N-])c(=O)c2cc1OC)-c1ccc(N)cc1C3=O`, the GI50 in test [1] stood at 0.214 µM; in test [2] it was 0.214 µM; in test [3], 0.047 µM; in test [4], 0.026 µM; in test [5], 0.148 µM; in test [6], 0.051 µM. Also, the GI50 in test [7] turned out to be 0.05 µM; in test [8] it was 0.059 µM.

With `N#Cc1ccc2c(c1)C(=O)c1c-2n(CCCN=[N+]=[N-])c(=O)c2cc([N+](=O)[O-])ccc12`, the GI50 in test [1] was above 50.1 µM; in test [2] it was above 50.1 µM; in test [3], 3.89 µM; in test [4] it was 3.63 µM; in test [5], 46.8 µM; in test [6] it was 15.1 µM. In addition, the results for the GI50 in test [7] and in test [8] were above 50.1 µM and 7.08 µM, respectively.

With `COC(=O)c1ccc2c(c1)C(=O)c1c-2n(CCCN=[N+]=[N-])c(=O)c2cc([N+](=O)[O-])ccc12`, the GI50 in test [1] is above 100 µM; in test [2] it was above 100 µM; in test [3] it was 47.9 µM; in test [4] it was 37.1 µM; in test [5], above 100 µM; in test [6], 25.7 µM. The values for the GI50 in test [7] and in test [8] were 53.7 µM and 70.8 µM, respectively.

Take `[N-]=[N+]=NCCCn1c2c(c3ccc([N+](=O)[O-])cc3c1=O)C(=O)c1cc(I)ccc1-2`: the GI50 amounted to 18.2 µM in test [1]; 34.7 µM in test [2]; 2.14 µM in test [3]; 3.31 µM in test [4]; 3.89 µM in test [5]; 1.82 µM in test [6]. Also, the GI50 in test [7] was determined as 2.24 µM; in test [8], 1.78 µM.

On to `Cc1ccc2c(c1)C(=O)c1c-2n(CCCBr)c(=O)c2cc([N+](=O)[O-])ccc12`, for which the GI50 in test [1] was 70.8 µM; in test [2], above 100 µM; in test [3] it was 18.6 µM; in test [4], 26.3 µM; in test [5], 46.8 µM; in test [6] it was 24.5 µM. The GI50 is above 100 µM in test [7] and 50.1 µM in test [8].

Turning to `NCCCn1c2c(c3ccc([N+](=O)[O-])cc3c1=O)C(=O)c1cc(F)ccc1-2`, the GI50 in test [1] is 0.052 µM; in test [2], 0.081 µM; in test [3], below 0.01 µM; in test [4], below 0.01 µM; in test [5] it was 0.034 µM; in test [6], below 0.01 µM. In addition, the GI50 was 0.028 µM in test [7] and below 0.01 µM in test [8].

With `COc1cc2c3c(n(CCCCl)c(=O)c2cc1OC)-c1ccccc1C3=O`, the GI50 in test [1] was 10.7 µM; in test [2], above 100 µM; in test [3] it was 2.46 µM; in test [4], 12.3 µM; in test [5] it was above 100 µM; in test [6], 4.47 µM. The results for the GI50 in test [7] and in test [8] were 14.1 µM and above 100 µM, respectively.

For `COC(=O)OCc1ccc2c(c1)C(=O)c1c-2n(CCCBr)c(=O)c2cc([N+](=O)[O-])ccc12`, the GI50 in test [1] is above 100 µM; in test [2], above 100 µM; in test [3], 81.3 µM; in test [4], 33.9 µM; in test [5] it was above 100 µM; in test [6] it was 27.5 µM. For the same compound, the GI50 is 56.2 µM in test [7] and above 100 µM in test [8].

As to `[N-]=[N+]=NCCCn1c2c(c3ccc([N+](=O)[O-])cc3c1=O)C(=O)c1cc(F)ccc1-2`, the GI50 in test [1] amounted to 3.47 µM; in test [2], 2.88 µM; in test [3], 0.309 µM; in test [4], 0.38 µM; in test [5] it was 0.302 µM; in test [6], 0.251 µM. Also, the GI50 in test [7] stood at 0.457 µM; in test [8], 0.437 µM.

As to `COc1cc2c3c(n(CCCN=[N+]=[N-])c(=O)c2cc1OC)-c1ccc([N+](=O)[O-])cc1C3=O`, the GI50 in test [1] was above 100 µM; in test [2] it was above 100 µM; in test [3], above 100 µM; in test [4] it was 69.2 µM; in test [5], above 100 µM; in test [6], 89.1 µM. Besides, the GI50 in test [7] was found to be 38.9 µM; in test [8], 34.7 µM.

Values taken from ChEMBL document CHEMBL1148751, “Optimization of the indenone ring of indenoisoquinoline topoisomerase I inhibitors” (2007).
